A short description of data set [1]: Blood glucose and pancreatic islets in B16-bearing mice. It counts as in vivo. From the text:
Hematoxylin and Eosin (H&E) stained slides were scanned in an Aperio AT2 whole slide scanner (Leica Biosystems Inc.) equipped with a 20×0.7NA objective lens Images were created at 0.5 micron per pixel resolution and imported into Definiens Tissue Studio software v4.7 (Definiens AG) for analysis. Islets were found using a semi-automated segmentation process. First an automatic segmentation was applied to the image to create contour lines around objects within the image. Objects that contained islets were classified as such and remaining objects were classified as non-islet tissue. Next, adjacent objects of the same classification were merged together to clean up the segmentation. Segmented images were analyzed to provide the total area of islets Immunofluorescence for mouse insulin in pancreas tissue sections was performed as we described (Sultan et al., 2017). Labeled samples were scanned with a Zeiss Imager Z2 Upright FL microscope with a 10× objective lens using the tile scan function. Images were created at a
0.65 micron per pixel resolution and imported into the Definiens Tissue Studio software v4.7 (Definiens AG) for islet detection and analysis. Islets were detected using a semi-automated segmentation process. First, an automatic segmentation was applied to the image to detect the tissue. Then, the software was trained to detect islet vs. non-islet tissue within the image. In order to remove false detected islets caused by background staining, detected islets larger than 150,000 square microns and less than 600 square microns were reclassified to non-islet tissue. Segmented images were then analyzed to provide the fluorescent intensity of islets and total tissue area.

For a further data set, the system named is B16 tumors. Briefly: s.c. B16 melanoma tumor model in mice. The format is in vivo.
Another data set deals with human FSH-CER T cells. Briefly: Expansion of IL-2-supplemented human FSH-CER T cells with ER stress inhibitors. It counts as cell-based. The settings on record: treatment for 5 days. The method, then: The role of the PERK-Chop in the expansion of tumor TRM cells using conditional T cell Chop-null mice was evaluated. In agreement with the inhibitory effect of Chop in TRM development, higher frequency of TRM cells was detected in tumors from T cell-Chop^KO mice compared to controls (FIG. 23A). Next, we tested the effect of the inhibition of PERK (AMG-44) and IRE 1α (MKC8866) during the expansion of IL-2-supplemented human FSH-CER T cells. […] Also, we evaluated the therapeutic effect of the combination of ER stress-targeting therapy and FSH-CER. Thus, mice bearing FSHR+-ID8-Defb29/Vegfa ovarian tumors for 7 days received daily treatments with MKC8866 (i.p., 300 mg/kg) or AMG-44 (i.p. 12 mg/kg) for one-week, and i.p. transfer of FSH-CER T cells at days 7 and 14 post-tumor challenge. […] We postulate that treatments for longer time periods with ER stress inhibitors will further potentiate the effect of FSH-CER T cells

The structures appear in SMILES notation.

As for `Cc1ccc2cc(-c3c(C)ccc(C(=O)c4c(-c5ccccc5)n(C)n(-c5ccccc5)c4=O)c3N)ccc2n1` [AMG-44], in data set [1] (AMG-44 12 and 24 mg/kg), the blood glucose levels result is recorded as “without alterations”, the “insulin expression in the pancreatic islets” value was “without alterations” and the “size of the pancreatic islets” value is given as “without alterations”. Also, the “glucose levels in the serum” value in data set [1] (B16-bearing mice treated for a week, GSK2606414 25 mg/kg or AMG-44 12 mg/kg, day 17) is “failed to show alterations in glucose levels”. Besides, the “combination with anti-PD-L1 immunotherapy” value in the data set with B16 tumors (B16-bearing mice, AMG-44 12 mg/kg plus 250 μg anti-PD-L1 every 3rd day) is given as “synergized with anti-PD-L1 immunotherapy”. For the same compound, in the data set on B16 tumors (B16, AMG-44 12 mg/kg), the “therapeutic anti-tumor action in Eif2ak3^KO-Lyz2 mice” value is on record as “not in Eif2ak3^KO-Lyz2 counterparts”. Besides, the “therapeutic anti-tumor action in PERK-competent mice” value with B16 tumors (B16, AMG-44 12 mg/kg, Eif2ak3^Flox mice) was “detected in PERK-competent mice”. Besides, the tumor growth entry in the data set with B16 tumors (B16, daily i.p. GSK2606414 25 mg/kg or AMG-44 12 mg/kg from day 7) is “delayed tumor growth”. For the same compound, the “frequency of FSH-CER TRM cells” value in the data set with human FSH-CER T cells was “Higher frequency of FSH-CER TRM cells”.

The record behind these values is patent publication US20230107770A1, “METHOD OF ENHANCING IMMUNOTHERAPY USING ER STRESS PATHWAY INHIBITORS” (H. LEE MOFFITT CANCER CENTER AND RESEARCH INSTITUTE, INC., priority 2020, published 2023).
